# Measurements reported in US7754722B2, “Piperazine derivatives and methods of use” (Merck Serono SA, priority 2002, dated 2010).
# Target: T1, FSH receptor (Homo sapiens, UniProt P23945)
# T1 construct: expressed in transfected cells; host or cells: CHO (Chinese Hamster Ovary) cells, stably transfected, carrying a cAMP response element-luciferase reporter
# T1 sequence (P23945 18-695): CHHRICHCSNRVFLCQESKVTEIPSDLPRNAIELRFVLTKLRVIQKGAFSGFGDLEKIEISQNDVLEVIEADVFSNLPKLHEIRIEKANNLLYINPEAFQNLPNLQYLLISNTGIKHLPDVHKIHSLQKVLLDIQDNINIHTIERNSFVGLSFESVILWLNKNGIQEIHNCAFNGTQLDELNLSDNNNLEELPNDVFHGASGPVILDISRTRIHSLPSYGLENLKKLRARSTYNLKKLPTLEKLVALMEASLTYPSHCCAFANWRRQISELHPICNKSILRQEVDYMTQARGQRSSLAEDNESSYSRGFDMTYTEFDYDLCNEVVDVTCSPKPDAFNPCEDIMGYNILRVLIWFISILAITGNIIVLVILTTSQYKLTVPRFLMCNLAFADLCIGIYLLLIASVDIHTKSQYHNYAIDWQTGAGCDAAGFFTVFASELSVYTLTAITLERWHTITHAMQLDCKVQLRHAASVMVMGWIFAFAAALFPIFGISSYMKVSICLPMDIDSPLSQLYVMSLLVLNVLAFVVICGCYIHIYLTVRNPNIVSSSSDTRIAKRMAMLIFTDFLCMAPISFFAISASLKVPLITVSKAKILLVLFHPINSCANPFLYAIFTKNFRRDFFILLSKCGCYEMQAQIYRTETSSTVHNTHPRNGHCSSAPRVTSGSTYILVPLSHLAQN
# Assay: FSH assay: cAMP response element luciferase reporter in CHO cells expressing recombinant FSH receptor
# Format: cell-based
# Conditions: agonist activity; CHO cells stably transfected with recombinant FSH receptor; luciferase luminescence; log-dose-response curves; incubation 37° C. for 3 hrs 30 min; read-out: ED50 (the source's name)
# Protocol: Compounds of the invention were tested in the following assay.
# All compounds of the invention were stored in 96-well deepwell plates in DMSO at a nominal concentration of 10 μM. Compounds of the invention were screened for agonist activity at the FSH receptor using the recombinant FSH receptor stably transfected and expressed in Chinese Hamster Ovary Cells (CHO cells) essentially as described in the work by Kelton, et al. Molecular and Cellular Endocrinology, 1992, 89, 141-151). […] Thus an agonist at the FSH receptor increases cAMP in the cell which results in activation of the CREB (cAMP) response element binding protein). The substrate for the enzyme (Packard Instrument Company 800 Research Parkway, Meriden, Conn. 06450, USA) was added to the cells after appropriate incubation with the compounds or FSH and the amount of luciferase expressed was measured by quantitating the luminescence produced by the enzyme using a TopCount scintillation/luminescence counter running in single photon counting mode. A compound which acts as an agonist at the receptor should produce light from the treated cells in proportion to its concentration within the incubation. Luminescence should be saturable at high concentrations of the compound.
# The compounds of the invention, in deepwell plates (Master plates) as indicated above were loaded on the robotic deck along with the appropriate number of assay plates and daughter plates. A 10 μl aliquot from each master plate was transferred to the corresponding daughter plate and 90 μl of DME/F12 was added and mixed within each well. 20 μl was then removed from the daughter plate and dispensed into the assay plate. After addition of an aliquot of FSH (equivalent to an EC100 response for this hormone to each of three wells on the plate, 80 μl of media (DME/F 12±2% serum) and 100 μl aliquot of cells (4×10^5/ml in the same media) were added and the plate incubated at 37° C. for 3 hrs 30 min. At this time the plate was removed from the incubator and media in each well was aspirated and the cells adhering to the bottom of the plate washed with 300 μl PBS containing 1 mM Ca^2+ and 1 mM Mg^2+. The PBS was aspirated and 100 μl PBS added to each well. 100 μl of Lucite (prepared as described by the manufacturer) was added to each well and the plate was shaken gently for 40 seconds prior to placement in the TopCount plate reader. After allowing 3.5 minutes for the plate to dark-adapt within the machine, the amount of luminescence generated was quantitated using Single Photon Counting mode. The data was transmitted electronically from the TopCount to the robot processing computer terminal and was renamed with an ID corresponding to the original master plate ID. […] LDR (log-dose-response) curves were generated for these compounds in CHO cells containing the FSH receptor and these curves were also compared with those in either cells expressing a different Gs linked receptor or in cells lacking any transfected receptor.
row,Structure (SMILES),EC50 [nM]
1,CCCCCCN1CCN(S(=O)(=O)c2cccs2)[C@H](C(=O)Nc2ccc3c(c2)c2ccccc2n3CC)C1 [4-hexyl-1-(thiophene-2-sulfonyl)-piperazine-2-carboxylic acid (9-ethyl-9H-carbazol-3-yl) amide],380
2,CCCCC(=O)N1CCN(S(=O)(=O)c2cccs2)[C@H](C(=O)Nc2ccc3c(c2)c2ccccc2n3CC)C1 [4-pentanoyl-1-(thiophene-2-sulfonyl)-piperazine-2-carboxylic acid (9-ethyl-9H-carbazol-3-yl) amide],402
3,"CCCCCN1CCN(S(=O)(=O)c2cccs2)C(C(=O)Nc2ccc3[nH]c4c(c3c2)CCNC4=O)C1 (stereo not drawn) [4-pentyl-1-(thiophene-2-sulfonyl)-piperazine-2-carboxylic acid (1-oxo-2,3,4,9-tetrahydro-1H-beta-carbolin-6-yl)amide]",220
4,CCOC(=O)CNC(=O)N1CCN(S(=O)(=O)c2cccs2)[C@H](C(=O)Nc2ccc3c(c2)c2ccccc2n3CC)C1 [{[3-(9-ethyl-9H-carbazol-3-ylcarbamoyl)-4-(thiophene-2-sulfonyl)-piperazine-1-carbonyl]-amino}acetic acid ethyl ester],408

# Now those with a lower EC50, led by results:
row,EC50 [nM],Structure (SMILES)
1,54,CCCCCCCCN1CCN(S(=O)(=O)c2cccs2)[C@H](C(=O)Nc2ccc3c(c2)nc(-c2ccncc2)n3CC)C1 [4-octyl-1-(thiophene-2-sulfonyl)-piperazine-2-carboxylic acid (1-ethyl-2-pyridin-4-yl-1H-benzoimidazol-5-yl)amide]
2,150,CCCCCN1CCN(S(=O)(=O)c2cccs2)[C@H](C(=O)Nc2ccc3c(c2)nc(-c2cccnc2)n3CC)C1 [4-pentyl-1-thiophene-2-sulfonyl)-piperazine-2-carboxylic acid (1-ethyl-2-pyridin-3-yl-1H-benzoimidazol-5-yl)amide]
